Patent publication US20250041312A1, “METHODS OF ADMINISTERING A MODULATOR OF HEMOGLOBIN” (Global Blood Therapeutics, Inc., priority 2021, published 2025)
Read-outs that look alike come from different tables or passages of the source.

Assay: MAD study in healthy volunteers: whole blood and plasma PK
Assay type: in vivo, human
Details: for Cmax / Tmax / AUC(0-t) / concentration at 14 day: human; for Tmax: median; for AUC(0-t): read-out: AUC0-24; for concentration at 14 day: read-out: Cmin
[1] = HV MAD Day 14, 15 mg QD maintenance, plasma
[2] = HV MAD Day 14, 15 mg QD maintenance, whole blood
[3] = HV MAD Day 14, 25 mg QD maintenance, plasma
[4] = HV MAD Day 14, 25 mg QD maintenance, whole blood
[5] = HV MAD Day 14, 50 mg QD maintenance, plasma
[6] = HV MAD Day 14, 75 mg QD maintenance, plasma
[7] = HV MAD Day 14, 75 mg QD maintenance, whole blood

O=Cc1c(O)cccc1OC[C@@H]1COCCN1C(=O)c1cccnc1CCO [Compound I, (S)-2-hydroxy-6-((4-(2-(2-hydroxyethyl)nicotinoyl)morpholin-3-yl)methoxy)benzaldehyde]
B:P ratio (mean AUC0-24 blood:mean AUC0-24 plasma) (HV MAD Day 14, 15 mg QD maintenance): 182 | B:P ratio (mean AUC0-24 blood:mean AUC0-24 plasma) (HV MAD Day 14, 25 mg QD maintenance): 194 | B:P ratio (mean AUC0-24 blood:mean AUC0-24 plasma) (HV MAD Day 14, 50 mg QD maintenance): 149 | PK among cohorts with multiple ascending doses (HV, loading 300 mg x 3 days, maintenance 15, 25, 50 or 75 mg x 14 days (FIG. 2)): linear, dose-proportional PK | Cmax (HV MAD Day 14, 15 mg QD maintenance (loading 200 mg x 3 days), whole blood): 130000 ng/mL | Cmax [1]: 830 ng/mL | Tmax [1]: 1 h | AUC(0-t) [1]: 15.6 µg·h/mL | concentration at 14 day [1]: 680 ng/mL | Tmax [2]: 6 h | concentration at 14 day [2]: 121000 ng/mL | Cmax (HV MAD Day 14, 25 mg QD maintenance (loading 200 mg x 3 days), whole blood): 141000 ng/mL | Cmax [3]: 900 ng/mL | Tmax [3]: 1.5 h | AUC(0-t) [3]: 15.9 µg·h/mL | concentration at 14 day [3]: 660 ng/mL | Tmax [4]: 2 h | AUC(0-t) [4]: 3090 µg·h/mL | Cmax (HV MAD Day 14, 50 mg QD maintenance (loading 500/400/400 mg), whole blood): 236000 ng/mL | Cmax [5]: 1990 ng/mL | Tmax [5]: 1 h | AUC(0-t) [5]: 34.5 µg·h/mL | concentration at 14 day [5]: 1450 ng/mL | concentration at 14 day (HV MAD Day 14, 50 mg QD maintenance, whole blood): 210000 ng/mL | Cmax [6]: 2740 ng/mL | Tmax [6]: 1 h | AUC(0-t) [6]: 48.6 µg·h/mL | concentration at 14 day [6]: 2220 ng/mL | Tmax [7]: 3 h | AUC(0-t) [7]: 6760 µg·h/mL
